{"source": "patent US20250345266A1", "about": "“READY-TO-INFUSE OXYTOCIN COMPOSITIONS” (AMNEAL PHARMACEUTICALS LLC, priority 2024, published 2025)", "origin": "cited, not measured here", "data": [{"compound": "CC[C@H](C)[C@@H]1NC(=O)[C@H](Cc2ccc(O)cc2)NC(=O)[C@@H](N)CSSC[C@@H](C(=O)N2CCC[C@H]2C(=O)N[C@@H](CC(C)C)C(=O)NCC(N)=O)NC(=O)[C@H](CC(N)=O)NC(=O)[C@H](CCC(N)=O)NC1=O", "note": "[Oxytocin]", "values": [{"measurement": "half-life", "result": "about 3 minutes"}]}]}
